Results taken from ChEMBL document CHEMBL1201862, “PubChem BioAssay data set” (2004).
Values belong to the compound of their own block, whether it stands above or below them. The source made the active and inactive calls.

Assays:
HEK293 [1] = test: inhibition of NOD1-driven NF-kB reporter – cell-based, luminescence, uHTS, primary screen (AID 1578); assay type: functional; settings: Homo sapiens
HEK293 [2] = test: cells; assay type: functional, cell-based; settings: Homo sapiens
HEK293 [3] = test: cells; assay type: functional, cell-based; settings: Homo sapiens; remark: listed apart in the source
[4] = molecular target: T1, Nucleotide-binding oligomerization domain-containing protein 2 (Homo sapiens, UniProt Q9HC29); test: inhibition of NOD2-driven NF-kB reporter – cell-based, luminescence, uHTS, HEK293 (AID 1566); assay type: functional
HEK293 [5] = test: NOD2 signaling inhibitors in MDP-stimulated cells, cell-based, uHTS, luminescence (AID 2001); assay type: functional; settings: Homo sapiens
HEK293 [6] = test: cells; assay type: functional, cell-based; settings: Homo sapiens; remark: listed apart in the source
[7] = molecular target: T1, Nucleotide-binding oligomerization domain-containing protein 2; test: inhibition of NOD2 signaling – set 2, SAR follow-up (AID 2475); assay type: functional
Tumor necrosis factor [8] = molecular target: T2, Tumor necrosis factor (Homo sapiens, UniProt P01375); test: analog potency on TNFa NF-kB signaling – cell-based, revised, SAR follow-up (AID 2337); assay type: functional
HEK293 [9] = test: SAR analysis of compounds that are cytotoxic to HEK293 - Set 2. [Related pubchem assays (depositor defined):AID1575, AID1578, AID1849, AID2001, AID2333, AID2334, AID2335, AID2337, AID2800]; assay type: functional, cell-based; settings: Homo sapiens
[10] = molecular target: T3, Nucleotide-binding oligomerization domain-containing protein 1 (Homo sapiens, UniProt Q9Y239); test: blockers of NOD1 pathway activity – revised, SAR follow-up (AID 2333); assay type: functional
T3 sequence (Q9Y239 whole entry): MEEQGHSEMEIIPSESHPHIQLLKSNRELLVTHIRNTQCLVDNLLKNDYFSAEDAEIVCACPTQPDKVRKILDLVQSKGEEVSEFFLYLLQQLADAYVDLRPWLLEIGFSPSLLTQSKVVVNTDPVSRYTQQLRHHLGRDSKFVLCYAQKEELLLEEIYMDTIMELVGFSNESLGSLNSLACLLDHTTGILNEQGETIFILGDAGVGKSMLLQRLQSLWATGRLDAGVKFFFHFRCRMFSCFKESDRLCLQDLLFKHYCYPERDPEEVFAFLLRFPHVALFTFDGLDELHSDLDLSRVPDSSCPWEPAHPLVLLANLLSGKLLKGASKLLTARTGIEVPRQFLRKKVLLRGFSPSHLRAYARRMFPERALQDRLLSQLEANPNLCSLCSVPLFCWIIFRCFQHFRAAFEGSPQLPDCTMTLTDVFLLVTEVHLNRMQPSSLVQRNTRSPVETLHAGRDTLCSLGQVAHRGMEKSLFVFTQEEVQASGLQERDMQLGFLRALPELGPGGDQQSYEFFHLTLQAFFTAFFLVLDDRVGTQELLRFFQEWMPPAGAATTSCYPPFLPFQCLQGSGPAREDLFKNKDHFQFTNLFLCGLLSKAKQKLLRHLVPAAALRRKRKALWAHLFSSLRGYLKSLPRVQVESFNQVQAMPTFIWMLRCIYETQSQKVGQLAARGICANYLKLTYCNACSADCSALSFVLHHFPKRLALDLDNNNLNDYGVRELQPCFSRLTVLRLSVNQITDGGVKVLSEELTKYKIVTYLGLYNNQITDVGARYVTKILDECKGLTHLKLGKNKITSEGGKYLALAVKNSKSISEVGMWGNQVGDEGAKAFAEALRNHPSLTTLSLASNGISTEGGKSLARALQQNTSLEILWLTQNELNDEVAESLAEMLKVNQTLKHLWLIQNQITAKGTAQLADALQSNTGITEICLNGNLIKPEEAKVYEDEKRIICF

[11] = molecular target: T3, Nucleotide-binding oligomerization domain-containing protein 1; test: SAR analysis of compounds that inhibit NOD1 - Set 2. [Related pubchem assays (depositor defined):AID1566, AID1575, AID1578, AID1849, AID1852, AID2333, AID2335, AID2798]; assay type: functional
Tumor necrosis factor [12] = molecular target: T2, Tumor necrosis factor; test: analog potency on TNFa NF-kB signaling – cell-based, set 2, SAR follow-up (AID 2483); assay type: functional
[13] = molecular target: T1, Nucleotide-binding oligomerization domain-containing protein 2; test: PubChem AID 2334; assay type: functional
HEK293 [14] = test: cells; settings: Homo sapiens
Ion channel NompC = Ion channel NompC (Danio rerio, UniProt Q7T1G6); test: Dose response cell-based high-throughput screening assay for agonists of the transient receptor potential channel N1 (TRPN1). [Related pubchem assays (depositor defined):AID1424, AID1448]; assay type: functional
Mucolipin-3 = molecular target: T4, Mucolipin-3 (Homo sapiens, UniProt Q8TDD5); test: Fluorescence counterscreen assay for […] agonists: dose response cell-based high-throughput screening assay to identify agonists of the transient receptor potential channel ML3 (TRPML3). [Related pubchem assays: 1424, 1448 ]; assay type: functional
T4 sequence (Q8TDD5 whole entry): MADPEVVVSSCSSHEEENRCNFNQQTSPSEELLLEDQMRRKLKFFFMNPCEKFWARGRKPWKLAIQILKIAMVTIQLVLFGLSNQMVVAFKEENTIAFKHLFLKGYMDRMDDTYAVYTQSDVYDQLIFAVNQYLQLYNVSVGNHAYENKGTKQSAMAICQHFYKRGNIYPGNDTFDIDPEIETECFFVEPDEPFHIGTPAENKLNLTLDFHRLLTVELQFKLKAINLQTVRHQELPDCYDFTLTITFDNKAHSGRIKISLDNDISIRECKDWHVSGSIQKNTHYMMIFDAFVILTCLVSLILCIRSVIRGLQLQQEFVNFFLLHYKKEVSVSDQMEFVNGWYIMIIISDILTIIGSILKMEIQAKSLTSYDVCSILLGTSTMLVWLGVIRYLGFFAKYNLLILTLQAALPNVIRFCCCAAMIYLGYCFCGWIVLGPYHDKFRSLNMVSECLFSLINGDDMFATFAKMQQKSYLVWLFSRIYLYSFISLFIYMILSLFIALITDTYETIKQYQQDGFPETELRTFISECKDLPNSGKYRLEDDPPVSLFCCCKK

[15] = molecular target: Eukaryotic translation initiation factor 4E (Mus musculus, UniProt P63073); test: blockers of eIF4G binding by eIF4E – biochemical, TR-FRET, dose response (AID 855); assay type: functional;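 further: potency for disrupting eIF4E binding to eIF4GI seen as loss of FRET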
Troponin, cardiac muscle = Troponin, cardiac muscle (Homo sapiens, UniProt P19429+P45379+P63316); test: Fluorescence-based biochemical high throughput dose response assay for activators of the calcium sensitivity of cardiac Regulated Thin Filaments (RTF). [Related pubchem assays (depositor defined):AID493008, AID493018, AID504382, AID504383]; assay type: protein-complex assay
[16] = viability loss in HeLa cells – cytotoxicity control for MgcRacGAP inhibitor project, dose response (AID 624300); assay type: functional
[17] = molecular target: T5, Rac GTPase-activating protein 1 (Homo sapiens, UniProt Q9H0H5); test: blockers of MgcRacGAP-driven Rac1 GTP hydrolysis – biochemical, ADP Hunter fluorescence, primary and confirmatory, confirmation (AID 624330); assay type: functional
T5 sequence (Q9H0H5 whole entry): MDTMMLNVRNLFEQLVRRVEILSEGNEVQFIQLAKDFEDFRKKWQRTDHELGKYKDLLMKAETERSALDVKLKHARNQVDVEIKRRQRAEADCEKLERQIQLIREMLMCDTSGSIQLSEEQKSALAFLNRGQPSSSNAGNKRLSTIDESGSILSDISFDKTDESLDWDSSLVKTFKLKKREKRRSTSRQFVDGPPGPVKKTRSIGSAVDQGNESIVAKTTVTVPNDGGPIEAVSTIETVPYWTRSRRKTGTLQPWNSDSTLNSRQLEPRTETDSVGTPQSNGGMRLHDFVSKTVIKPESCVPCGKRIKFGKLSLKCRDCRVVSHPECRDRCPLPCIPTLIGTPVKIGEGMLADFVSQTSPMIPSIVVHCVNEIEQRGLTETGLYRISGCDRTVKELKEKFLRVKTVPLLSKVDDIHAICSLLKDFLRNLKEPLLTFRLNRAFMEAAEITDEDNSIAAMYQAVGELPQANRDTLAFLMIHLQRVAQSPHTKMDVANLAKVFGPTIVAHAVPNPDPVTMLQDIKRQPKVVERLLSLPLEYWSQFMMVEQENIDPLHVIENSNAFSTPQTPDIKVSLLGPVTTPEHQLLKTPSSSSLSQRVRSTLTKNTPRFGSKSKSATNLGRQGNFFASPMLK

[18] = molecular target: T6, Sphingosine 1-phosphate receptor 4 (Homo sapiens, UniProt O95977); test: Late-stage fluorescence dose response cell-based assay to identify agonists of the Sphingosine 1-Phosphate Receptor 4 (S1P4): purchased compounds EC50. [Related pubchem assays (depositor defined):AID1509, AID1523, AID1563, AID1686, AID1701, AID1801]; assay type: functional
T6 sequence (O95977 whole entry): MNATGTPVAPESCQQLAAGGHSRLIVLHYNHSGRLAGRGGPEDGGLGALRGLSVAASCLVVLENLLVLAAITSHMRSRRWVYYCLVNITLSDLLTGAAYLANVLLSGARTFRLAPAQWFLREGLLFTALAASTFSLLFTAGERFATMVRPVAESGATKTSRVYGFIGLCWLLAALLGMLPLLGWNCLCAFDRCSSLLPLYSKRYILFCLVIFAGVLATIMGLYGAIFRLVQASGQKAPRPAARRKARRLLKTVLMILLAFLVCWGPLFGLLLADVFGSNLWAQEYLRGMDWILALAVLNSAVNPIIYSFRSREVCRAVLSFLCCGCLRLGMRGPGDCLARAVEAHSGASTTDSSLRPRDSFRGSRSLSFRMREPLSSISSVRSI

[19] = molecular target: DNA dC->dU-editing enzyme APOBEC-3A (Homo sapiens, UniProt P31941); test: Dose Response confirmation of small molecule APOBEC3A DNA Deaminase Inhibitors via a fluorescence-based single-stranded DNA deaminase assay. [Related pubchem assays (depositor defined):AID493011, AID493024]; assay type: functional
[20] = molecular target: DNA dC->dU-editing enzyme APOBEC-3G (Homo sapiens, UniProt Q9HC16); assay type: functional;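 further: Dose-response counterscreen measuring inhibition of APOBEC3G DNA deaminase activity, run while confirming APOBEC3A inhibitors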

Structure (SMILES): Cc1cc(SCC(=O)OC/C(O)=C(\C#N)c2nc3ccccc3[nH]2)c(C)cc1Br
EC50 (HEK293 [1]): > 20 µM (inactive)
IC50 (HEK293 [2]): 18.9 µM (active)
IC50 (HEK293 [3]): > 20 µM (inactive)
EC50 [4]: > 20 µM (inactive)
IC50 (HEK293 [5]): 5.41 µM (inactive)
IC50 (HEK293 [6]): > 20 µM (inactive)
IC50 [7]: 5.19 µM (active)
IC50 (Tumor necrosis factor [8]): > 20 µM (inactive)
IC50 (HEK293 [9]): > 20 µM (inactive)
IC50 [10]: > 20 µM (inactive)
IC50 [11]: 5.95 µM (active)
IC50 (Tumor necrosis factor [12]): > 20 µM (inactive)
IC50 [13]: > 20 µM (inactive)
IC50 (HEK293 [14]): > 20 µM (inactive)

EC50 (Ion channel NompC): 3.62 µM (active)
EC50 (Mucolipin-3): 8.88 µM (active)
IC50 [15]: 50 µM (inactive)
EC50 (Troponin, cardiac muscle): 4.89 µM (active)
IC50 [17]: 20 µM (active)
Structure (SMILES): COc1cc(/C=C(\C#N)c2nc3ccccc3[nH]2)cc(OC)c1O
CC50 [16]: 100 µM (active)

EC50 [18]: > 50 µM (inactive)
Structure (SMILES): Cc1ccc(OCc2ccc(Cl)c(Cl)c2)c([N+](=O)[O-])n1

Structure (SMILES): O=C(CNC(=O)OCc1ccccc1)Nc1ccc(F)cc1
IC50 [19]: 3.04 µM (active)
IC50 [20]: 5.01 µM (active)
